Laboratory results from paper PMC5048338, “Discovery of 4,6-disubstituted pyrimidines as potent inhibitors of the heat shock factor 1 (HSF1) stress pathway and CDK9” (Medchemcomm, 2016).

What was measured:
HSF1-stress pathway = test: ArrayScan HSP72 protein assay (HSF1-stress pathway inhibition, 17-AAG induced)
Description: To discover inhibitors of the HSF1-stress pathway, we employed an automated cellular imaging and analysis method (ArrayScan™) that quantifies the ability of a compound to suppress the expression of the HSF1-mediated inducible HSP70 isoform, HSP72.
U2OS cells (1500 per well) were plated in 40 μL of DMEM media (containing 10% fetal calf serum and 2 mM Glutamax T-1) in costar 384-well plates and left overnight at 37 °C and 5% CO2 to adhere.
treatment with compound, all wells except min wells were dosed with 17AAG diluted in DMSO (10
°C and 5% CO2. The following day the cells were fixed by addition of 20 μL/well of 12% formaldehyde with 1:1700 Hoechst in PBS for 10 min at room temperature. The fixative was decanted and the wells washed once with 50 μL of phosphate buffer saline (PBS).The PBS was subsequently aspirated, and the cells were permeabilized by addition of 20 μL/well of PBS 0.3% Triton X-100 for 20 min at room temperature. The wells were then washed with 80 μL of PBS prior to the addition of 20 μL of combined primary and secondary antibodies diluted in PBS (1:10 000 mouse anti-Hsp72
11001 molecular probes), for 2 h at room temperature. The wells were then washed with 50 μL of PBS. Finally, 50 μL of PBS was added to each well, and the plates were sealed ready to analyze.
Analysis was carried out using a Cellomics Arrayscan VTI instrument and the Cellomics Arrayscan Compartmental Analysis algorithm to measure cellular levels of HSP72.
100 μM to 0.1 μM plus a 12th point at 0.01 μM. Each well was backfilled with the required volume up to 120 nL of 100% DMSO to ensure a final 1% v/v DMSO concentration in the assay. In addition to the compound test wells, each plate carried maximum and minimum controls. Staurosporine at 10 μM was used to inhibit CDK2 activity for the minimum control. As a maximum control, 120 nL pure DMSO was added to the wells. Each plate contained at least 11 randomly distributed maximum and minimum controls. After the addition of compounds to the assay plates, the assay was performed as detailed above. Percentage conversion of substrate to product was used to calculate the effect of each compound on the kinase activity of CDK2/cyclinE. Enzyme inhibition model 3, non-linear curve fit analysis within OriginLab™ software was used to fit dose response curves and estimate the

CDK6/cyclin D3 = target: T1, CDK6/cyclin D3 (Homo sapiens, UniProt Q00534); test: EMD Millipore (Eurofins) CDK panel; type: biochemical; settings: EMD Millipore screening panel, N = 1
T1 construct: purchased EMD Millipore screening panel (now Eurofins)
T1 sequence (Q00534 whole entry): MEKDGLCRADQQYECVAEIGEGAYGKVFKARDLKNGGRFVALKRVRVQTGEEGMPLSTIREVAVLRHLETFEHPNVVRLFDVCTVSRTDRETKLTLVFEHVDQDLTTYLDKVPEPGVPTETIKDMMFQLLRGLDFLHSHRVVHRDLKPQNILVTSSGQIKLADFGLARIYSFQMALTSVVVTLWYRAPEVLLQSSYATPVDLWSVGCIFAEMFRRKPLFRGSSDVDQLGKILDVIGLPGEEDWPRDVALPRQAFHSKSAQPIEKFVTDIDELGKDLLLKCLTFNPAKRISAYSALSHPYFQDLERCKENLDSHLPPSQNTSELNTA
T1 sequence (P30281 whole entry partner): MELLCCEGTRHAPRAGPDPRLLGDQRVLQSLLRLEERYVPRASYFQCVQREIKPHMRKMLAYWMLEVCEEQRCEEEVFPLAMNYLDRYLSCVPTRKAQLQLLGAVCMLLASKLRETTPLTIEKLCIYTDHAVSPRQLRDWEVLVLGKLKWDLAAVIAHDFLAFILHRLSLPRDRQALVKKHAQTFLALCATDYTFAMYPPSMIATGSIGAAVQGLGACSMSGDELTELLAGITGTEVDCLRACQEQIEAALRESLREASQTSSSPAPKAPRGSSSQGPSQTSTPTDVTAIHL
Description: (§1) Therefore 4,6-pyrimidine 3 was submitted to a EMD Millipore CDK panel to assess potency across the selected CDK family members (Table 3). Modest activity was observed against several CDKs; […]. […]. page 4: […]
(§2) mM Mg Acetate and [9-33P]-ATP (specific activity approx. 500 cpm/pmol, concentration as required). The reaction is initiated by the addition of the MgATP mix. After incubation for 40 minutes at room temperature, the reaction is stopped by the addition of 3% phosphoric acid solution. 10 μL of the reaction is then spotted onto a P30 filtermat and washed three times for 5 minutes in 75 mM phosphoric acid and once in methanol prior to drying and scintillation counting. […]
(§3) , 10 mM MgAcetate and […]
as §2, with “(specific” for “mM Mg Acetate and [9-33P]-ATP (specific”

CDK7/cyclin H/MAT1 = target: T2, CDK7/cyclin H/MAT1 (Homo sapiens, UniProt P50613); test: EMD Millipore (Eurofins) CDK panel; type: biochemical; settings: EMD Millipore screening panel, N = 1
T2 construct: purchased EMD Millipore screening panel (now Eurofins)
T2 sequence (P50613 whole entry): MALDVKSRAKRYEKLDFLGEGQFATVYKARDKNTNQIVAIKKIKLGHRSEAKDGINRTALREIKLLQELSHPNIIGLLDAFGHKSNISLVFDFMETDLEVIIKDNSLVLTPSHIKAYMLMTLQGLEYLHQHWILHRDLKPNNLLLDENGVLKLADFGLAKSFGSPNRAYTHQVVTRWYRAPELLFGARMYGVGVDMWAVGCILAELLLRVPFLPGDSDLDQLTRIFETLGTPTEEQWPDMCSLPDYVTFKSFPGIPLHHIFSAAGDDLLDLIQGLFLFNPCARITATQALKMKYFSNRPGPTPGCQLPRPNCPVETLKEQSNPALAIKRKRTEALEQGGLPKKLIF
T2 sequence (P51946 whole entry partner): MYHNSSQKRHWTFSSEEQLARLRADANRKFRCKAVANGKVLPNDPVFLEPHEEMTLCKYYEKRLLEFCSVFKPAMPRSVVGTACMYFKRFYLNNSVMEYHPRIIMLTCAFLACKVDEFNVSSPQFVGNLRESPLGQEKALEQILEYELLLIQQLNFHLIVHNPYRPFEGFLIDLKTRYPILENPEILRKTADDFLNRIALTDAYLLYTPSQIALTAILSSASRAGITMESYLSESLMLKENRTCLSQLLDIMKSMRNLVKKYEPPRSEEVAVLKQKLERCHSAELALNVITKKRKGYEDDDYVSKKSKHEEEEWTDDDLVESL
T2 sequence (P51948 whole entry partner): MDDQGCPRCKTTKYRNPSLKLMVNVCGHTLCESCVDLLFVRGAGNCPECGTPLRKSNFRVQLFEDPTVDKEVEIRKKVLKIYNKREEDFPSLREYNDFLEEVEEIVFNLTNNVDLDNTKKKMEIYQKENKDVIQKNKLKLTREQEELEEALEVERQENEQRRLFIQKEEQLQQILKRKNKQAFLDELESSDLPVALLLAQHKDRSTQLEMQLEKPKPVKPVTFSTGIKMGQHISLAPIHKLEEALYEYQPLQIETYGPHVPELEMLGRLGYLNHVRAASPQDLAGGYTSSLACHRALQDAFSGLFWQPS
Description: as §1, §2, §3
as §2, with “(specific” for “mM Mg Acetate and [9-33P]-ATP (specific”

CDK2/cyclinE [1] = target: T3, CDK2/cyclinE (Homo sapiens, UniProt P24941); test: EMD Millipore (Eurofins) CDK panel; settings: read-out: CDK2/cyclin E IC50; EMD Millipore screening panel, N = 1
Description: Eurofins CDK panel assay conditions
(§4) CDK1/cyclinB (h) is incubated with 8 mM MOPS pH 7.0, 0.2 mM EDTA, 0.1 mg/mL histone H1, 10 mM MgAcetate and [9-33P]-ATP (specific activity approx. 500 cpm/pmol, concentration as required). The reaction is initiated by the addition of the MgATP mix. After incubation for 40 minutes at room temperature, the reaction is stopped by the addition of 3% phosphoric acid solution. 10 μL of the reaction is then spotted onto a P30 filtermat and washed three times for 5 minutes in 75 mM phosphoric acid and once in methanol prior to drying and scintillation counting.
(§5) CDK2/cyclinE (h) is incubated with 8 mM MOPS pH 7.0, 0.2 mM EDTA, 0.1 mg/mL histone H1, 10
(§6) CDK3/cyclinE (h) is incubated with 8 mM MOPS pH 7.0, 0.2 mM EDTA, 0.1 mg/mL histone H1, 10 mM Mg Acetate and [9-33P]-ATP (specific activity approx. 500 cpm/pmol, concentration as

CDK1/cyclin B = CDK1/cyclin B (Homo sapiens, UniProt P06493); test: EMD Millipore (Eurofins) CDK panel; settings: read-out: CDK1/cyclin B IC50; EMD Millipore screening panel, N = 1
CDK1/cyclin B, sequence (P06493 whole entry): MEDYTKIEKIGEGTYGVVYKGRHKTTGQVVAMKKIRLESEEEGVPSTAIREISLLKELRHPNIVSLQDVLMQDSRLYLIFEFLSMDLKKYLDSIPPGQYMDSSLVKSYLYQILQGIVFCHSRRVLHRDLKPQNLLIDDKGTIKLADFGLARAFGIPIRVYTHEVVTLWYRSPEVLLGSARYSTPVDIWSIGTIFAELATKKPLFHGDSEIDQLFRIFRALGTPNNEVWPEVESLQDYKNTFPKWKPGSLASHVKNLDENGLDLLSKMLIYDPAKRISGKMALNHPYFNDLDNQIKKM
CDK1/cyclin B, sequence (P14635 whole entry partner): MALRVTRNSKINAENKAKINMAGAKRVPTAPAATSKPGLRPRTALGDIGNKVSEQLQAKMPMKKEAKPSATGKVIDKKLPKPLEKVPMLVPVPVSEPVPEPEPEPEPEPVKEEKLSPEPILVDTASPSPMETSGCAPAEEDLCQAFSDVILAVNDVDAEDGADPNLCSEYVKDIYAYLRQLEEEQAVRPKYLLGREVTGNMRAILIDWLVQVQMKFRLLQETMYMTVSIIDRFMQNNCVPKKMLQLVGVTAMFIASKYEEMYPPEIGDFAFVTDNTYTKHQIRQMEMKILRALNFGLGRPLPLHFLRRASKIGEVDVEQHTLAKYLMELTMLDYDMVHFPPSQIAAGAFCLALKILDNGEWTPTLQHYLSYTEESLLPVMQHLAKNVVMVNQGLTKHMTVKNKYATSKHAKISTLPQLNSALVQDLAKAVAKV
Description: Eurofins CDK panel assay conditions
as §4, §5, §6

CDK5/p35 = target: T4, CDK5/p35 (Homo sapiens, UniProt Q00535); test: EMD Millipore (Eurofins) CDK panel; type: biochemical; settings: EMD Millipore screening panel, N = 1
T4 construct: purchased EMD Millipore screening panel (now Eurofins)
T4 sequence (Q00535 whole entry): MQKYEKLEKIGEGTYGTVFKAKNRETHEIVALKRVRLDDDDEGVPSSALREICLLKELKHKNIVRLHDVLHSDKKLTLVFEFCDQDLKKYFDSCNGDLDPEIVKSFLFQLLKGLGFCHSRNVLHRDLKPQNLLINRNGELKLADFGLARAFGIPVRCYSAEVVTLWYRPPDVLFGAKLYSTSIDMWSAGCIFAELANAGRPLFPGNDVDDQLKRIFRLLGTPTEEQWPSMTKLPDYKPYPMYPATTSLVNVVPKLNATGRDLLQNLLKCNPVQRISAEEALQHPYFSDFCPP
T4 sequence (Q15078 whole entry partner): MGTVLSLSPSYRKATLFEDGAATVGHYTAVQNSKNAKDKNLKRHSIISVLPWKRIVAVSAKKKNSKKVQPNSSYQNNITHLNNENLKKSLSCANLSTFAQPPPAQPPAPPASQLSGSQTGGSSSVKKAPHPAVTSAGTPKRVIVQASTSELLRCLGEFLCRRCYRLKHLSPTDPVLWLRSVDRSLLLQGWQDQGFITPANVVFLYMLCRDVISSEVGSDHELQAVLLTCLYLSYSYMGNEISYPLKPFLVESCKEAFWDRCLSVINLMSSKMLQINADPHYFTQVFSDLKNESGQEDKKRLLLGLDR
Description: Therefore 4,6-pyrimidine 3 was submitted to a EMD Millipore CDK panel to assess potency across the selected CDK family members (Table 3). Modest activity was observed against several CDKs; […]. […]. page 4:
as §2, with “CDK5/p35 (h) is incubated with 8 mM MOPS pH 7.0, 0.2 mM EDTA, 0.1 mg/mL histone H1, 10 mM Mg” for “mM Mg”
as §3
as §2, with “(specific” for “mM Mg Acetate and [9-33P]-ATP (specific”

CDK3/cyclin E = CDK3/cyclin E (Homo sapiens, UniProt Q00526); test: EMD Millipore (Eurofins) CDK panel; settings: read-out: CDK3/cyclin E IC50; EMD Millipore screening panel, N = 1
Description: Eurofins CDK panel assay conditions
as §4, §5, §6

CDK9/cyclin T1 = target: T5, CDK9/cyclin T1 (Homo sapiens, UniProt P50750); test: EMD Millipore (Eurofins) CDK panel; type: biochemical
T5 construct: purchased EMD Millipore screening panel (now Eurofins)
T5 sequence (P50750 whole entry): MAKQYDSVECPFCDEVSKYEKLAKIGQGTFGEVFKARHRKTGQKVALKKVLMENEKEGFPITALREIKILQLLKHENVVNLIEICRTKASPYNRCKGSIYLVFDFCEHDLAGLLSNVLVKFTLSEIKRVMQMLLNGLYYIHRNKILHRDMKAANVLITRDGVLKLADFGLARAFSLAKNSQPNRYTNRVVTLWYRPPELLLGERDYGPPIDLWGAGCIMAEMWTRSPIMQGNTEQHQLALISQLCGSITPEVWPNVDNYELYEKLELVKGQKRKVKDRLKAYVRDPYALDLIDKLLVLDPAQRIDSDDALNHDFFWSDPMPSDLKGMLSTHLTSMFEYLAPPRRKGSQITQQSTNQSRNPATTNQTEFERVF
T5 sequence (O60563 whole entry partner): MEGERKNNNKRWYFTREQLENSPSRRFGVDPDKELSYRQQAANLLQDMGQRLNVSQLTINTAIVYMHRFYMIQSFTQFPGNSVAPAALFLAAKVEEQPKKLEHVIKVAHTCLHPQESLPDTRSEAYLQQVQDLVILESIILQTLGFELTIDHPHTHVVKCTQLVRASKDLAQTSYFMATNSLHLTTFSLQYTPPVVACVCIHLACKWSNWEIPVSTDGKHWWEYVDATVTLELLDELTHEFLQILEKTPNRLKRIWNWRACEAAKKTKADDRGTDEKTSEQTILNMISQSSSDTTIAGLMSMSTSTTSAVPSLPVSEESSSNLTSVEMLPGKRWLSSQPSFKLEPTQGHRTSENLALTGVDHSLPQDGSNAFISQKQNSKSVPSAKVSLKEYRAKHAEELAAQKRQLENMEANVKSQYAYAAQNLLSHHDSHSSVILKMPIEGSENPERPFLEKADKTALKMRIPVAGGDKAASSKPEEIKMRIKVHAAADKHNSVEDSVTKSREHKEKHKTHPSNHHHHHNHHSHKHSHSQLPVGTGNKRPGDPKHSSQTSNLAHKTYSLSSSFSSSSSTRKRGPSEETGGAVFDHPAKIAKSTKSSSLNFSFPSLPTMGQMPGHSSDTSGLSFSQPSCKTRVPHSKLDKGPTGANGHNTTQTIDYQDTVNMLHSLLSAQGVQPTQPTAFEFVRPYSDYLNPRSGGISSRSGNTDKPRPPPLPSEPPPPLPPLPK
Description: as §1, §2
CDK9/cyclinT1 (h) is incubated with 8 mM MOPS pH 7.0, 0.2 mM EDTA, 100 μM […]
as §3
as §2, with “(specific” for “mM Mg Acetate and [9-33P]-ATP (specific”

CDK2/cyclinE [2] = target: T3, CDK2/cyclinE; test: CDK2 enzyme assay: off-chip mobility shift assay; type: biochemical; parameters: purchased Upstate/Millipore
Description: CDK2 enzyme assay: Off-chip Mobility SHIFT Assay
All reagents were purchased from Sigma-Aldrich unless otherwise specified. Inhibition of CDK2/cyclinE activity was quantified using an off-chip incubation, mobility shift assay, which uses a microfluidic chip (Caliper Life Sciences) to measure the conversion of a fluorescent peptide substrate to phosphorylated product. An Off-chip Mobility Shift Chip with 12 sippers (Caliper Life Sciences) was prepared for use according to the manufacturer’s instructions using Coating Reagent #3 (Caliper Life Sciences). The off-chip incubation was carried out in white, 384-well, flat bottom, low volume assay plates (Greiner). 5 µL peptide mix (1.5 µM substrate peptide (fluorescein-QSPKKG-CONH2, Bachem) and 90 µM ATP in kinase base buffer (50 mM HEPES, pH7.5 (Calbiochem), 0.06% CHAPSO)) were added to each well of the prepared compound plates which contained 120 nL compound stock solution per well. The reaction was then initiated by the addition of 6 µL enzyme mix (1.0 nM CDK2/cyclin E (Upstate/Millipore), 1.0 mM DTT and 5.0 mM MgCl2 in kinase base buffer). After incubation for 60 min at room temperature, each reaction was terminated by the addition of 10µL of stop solution containing 100 mM HEPES pH 7.5 (Calbiochem), 0.033% Brij-35, 0.22% Coating Reagent #3 (Caliper Life Sciences), 44 mM EDTA and 5 % DMSO. Reaction products were analysed using a Caliper LabChip LC3000 instrument and peak height was used to calculate percentage conversion of substrate to product.
For compound response testing, a 12 point compound concentration range was used. Compounds were acoustically dosed (Echo 555; Labcyte) into assay-ready plates using 11 half log intervals from 100 μM to […] plus a 12th point at 0.01 μM. Each well was backfilled with the required volume up to 120 nL of 100% DMSO to ensure a final 1% v/v DMSO concentration in the assay. In addition to the compound test wells, each plate carried maximum and minimum controls. Staurosporine at 10 μM was used to inhibit CDK2 activity for the minimum control. As a maximum control, 120 nL pure DMSO was added to the wells. Each plate contained at least 11 randomly distributed maximum and minimum controls. After the addition of compounds to the assay plates, the assay was performed as detailed above. Percentage conversion of substrate to product was used to calculate the effect of each compound on the kinase activity of CDK2/cyclinE. Enzyme inhibition model 3, non-linear curve fit analysis within OriginLab™ software was used to fit dose response curves and estimate the […]
concentration of compound required to reduce the enzyme activity to 50% of the conversion calculated from an average of the maximum controls.
Cell-based ELISA (Cellisa) for HSP72 expression
To follow HSP72 protein expression, a product of HSF1 transcriptional activity, Cellisa was developed. Cells (5-8x10^4cells/ml) were seeded into 96-well plates and incubated at 37 °C for 48 h.
Compounds were then added at a range of concentrations and incubated for 1 h before addition of 17-AAG (250 nM). Cells were then incubated for 18 h. The medium was removed and cells were fixed with fixing solution (4% paraformaldehyde, 0.3% TritonX-100 in PBS) for 30 min at 4 °C. The plates were then washed with 0.1% Tween-20/deionised water before blocking with 5% milk for 30 min at 37 °C. After washing the plates, HSP72 antibody (SPA-810, Enzo Life) was added for 1.5 h at 37 °C.
Following 4 x washes, the plates were incubated with europium-labelled anti-mouse antibody (0.6ug/ml) in Delfia assay buffer (Perkin Elmer) for 1 h at 37 °C. After washing the plates, Delfia enhancement solution was added, shaken for 10 min before reading in the Envision plate reader (Perkin-Elmer) with excitation at 340 nm and emission at 615 nm. The plates were washed again before protein determination using the BCA assay. The europium counts were normalised for the amount of protein in each well. The 50% inhibitory concentration value of the compound was then calculated and presented. […]

IC50 (HSF1-stress pathway; Homo sapiens, U2OS, read-out: HSF1 IC50): 80 nM | IC50 (CDK6/cyclin D3): 1300 nM | IC50 (CDK7/cyclin H/MAT1): 1100 nM | IC50 (CDK2/cyclinE [1]): 2800 nM | IC50 (CDK1/cyclin B): 1800 nM | IC50 (CDK5/p35): 610 nM | IC50 (CDK3/cyclin E): 3500 nM | IC50 (CDK9/cyclin T1; EMD Millipore screening panel, N = 1): 14 nM | ratio of activity CDK9/CyclinT1 (CDK9/cyclin T1; ratio between CDK2/7/9, CDK9 = 1, EMD Millipore Screening Panel): 1 | IC50 (CDK2/cyclinE [2]; biochemical, CDK2/cyclinE, average of two determinations): 580 nM | fold more active against CDK2 compared with phenyl compound 2 (CDK2/cyclinE [2]; relative to compound 2): 35 fold
Structure (SMILES): CN(C)CCOc1ccc(Nc2cc(-n3cnc4ccccc43)ncn2)nc1 [Compound 3]
fold more potent in the HSF1-stress pathway assay compared with phenyl compound 2 (HSF1-stress pathway; relative to compound 2): approximately 15 fold
